Data reported in PubChem BioAssay (NCI).
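Interpolation was linear, between the two tested concentrations surrounding the appropriate level; five concentrations were tested over 48 hours in 96-well plates. Definition used: TGI = concentration required for complete inhibition of growth.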

tested on: UACC-62 melanoma; assay: growth of human tumour cells (NCI), 48 h

| Structure (SMILES) | TGI [µM] |
| --- | --- |
| CCOC(=O)/C=C/CC(C)(C)COC(C)=O | > 10 |
| COc1ccc(C2C(C(=O)O)=C(CO)Oc3cc4c(cc32)OCO4)cc1 (stereo not given) | > 100 |
| CCC(C)C(=O)OC1C(=O)OC2CC3C(C)=CC(=O)C(O)C3(C)C3C4(O)OCC23C1C(C)C4O (stereo not given) | 0.188 |

tested on: OVCAR-3 ovarian; assay: growth of human tumour cells (NCI), 48 h

| Structure (SMILES) | TGI [µM] |
| --- | --- |
| CCOC(=O)/C=C/CC(C)(C)COC(C)=O | > 10 |
| COc1ccc(C2C(C(=O)O)=C(CO)Oc3cc4c(cc32)OCO4)cc1 (stereo not given) | > 100 |
| CCC(C)C(=O)OC1C(=O)OC2CC3C(C)=CC(=O)C(O)C3(C)C3C4(O)OCC23C1C(C)C4O (stereo not given) | 0.124 |

tested on: SK-MEL-28 melanoma; assay: growth of human tumour cells (NCI), 48 h

| Structure (SMILES) | TGI [µM] |
| --- | --- |
| CCOC(=O)/C=C/CC(C)(C)COC(C)=O | > 10 |
| COc1ccc(C2C(C(=O)O)=C(CO)Oc3cc4c(cc32)OCO4)cc1 (stereo not given) | > 100 |
| CCC(C)C(=O)OC1C(=O)OC2CC3C(C)=CC(=O)C(O)C3(C)C3C4(O)OCC23C1C(C)C4O (stereo not given) | 0.106 |

tested on: SK-OV-3 ovarian; assay: growth of human tumour cells (NCI), 48 h

| Structure (SMILES) | TGI [µM] |
| --- | --- |
| CCOC(=O)/C=C/CC(C)(C)COC(C)=O | > 10 |
| COc1ccc(C2C(C(=O)O)=C(CO)Oc3cc4c(cc32)OCO4)cc1 (stereo not given) | > 100 |
| CCC(C)C(=O)OC1C(=O)OC2CC3C(C)=CC(=O)C(O)C3(C)C3C4(O)OCC23C1C(C)C4O (stereo not given) | 4.11 |

tested on: SW-620 colon; assay: growth of human tumour cells (NCI), 48 h

| Structure (SMILES) | TGI [µM] |
| --- | --- |
| CCOC(=O)/C=C/CC(C)(C)COC(C)=O | > 10 |
| COc1ccc(C2C(C(=O)O)=C(CO)Oc3cc4c(cc32)OCO4)cc1 (stereo not given) | > 100 |
| CCC(C)C(=O)OC1C(=O)OC2CC3C(C)=CC(=O)C(O)C3(C)C3C4(O)OCC23C1C(C)C4O (stereo not given) | 0.694 |

tested on: OVCAR-4 ovarian; assay: growth of human tumour cells (NCI), 48 h

| Structure (SMILES) | TGI [µM] |
| --- | --- |
| CCOC(=O)/C=C/CC(C)(C)COC(C)=O | > 10 |
| COc1ccc(C2C(C(=O)O)=C(CO)Oc3cc4c(cc32)OCO4)cc1 (stereo not given) | > 100 |
| CCC(C)C(=O)OC1C(=O)OC2CC3C(C)=CC(=O)C(O)C3(C)C3C4(O)OCC23C1C(C)C4O (stereo not given) | 0.262 |

tested on: ACHN renal; assay: growth of human tumour cells (NCI), 48 h

| Structure (SMILES) | TGI [µM] |
| --- | --- |
| CCOC(=O)/C=C/CC(C)(C)COC(C)=O | > 10 |
| COc1ccc(C2C(C(=O)O)=C(CO)Oc3cc4c(cc32)OCO4)cc1 (stereo not given) | > 100 |
| CCC(C)C(=O)OC1C(=O)OC2CC3C(C)=CC(=O)C(O)C3(C)C3C4(O)OCC23C1C(C)C4O (stereo not given) | 0.257 |

tested on: A549 NSCLC; assay: growth of human tumour cells (NCI), 48 h

| Structure (SMILES) | TGI [µM] |
| --- | --- |
| CCOC(=O)/C=C/CC(C)(C)COC(C)=O | > 10 |
| COc1ccc(C2C(C(=O)O)=C(CO)Oc3cc4c(cc32)OCO4)cc1 (stereo not given) | > 100 |
| CCC(C)C(=O)OC1C(=O)OC2CC3C(C)=CC(=O)C(O)C3(C)C3C4(O)OCC23C1C(C)C4O (stereo not given) | 2.38 |

tested on: SNB-75 CNS; assay: growth of human tumour cells (NCI), 48 h

| Structure (SMILES) | TGI [µM] |
| --- | --- |
| CCOC(=O)/C=C/CC(C)(C)COC(C)=O | > 10 |
| COc1ccc(C2C(C(=O)O)=C(CO)Oc3cc4c(cc32)OCO4)cc1 (stereo not given) | > 100 |
| CCC(C)C(=O)OC1C(=O)OC2CC3C(C)=CC(=O)C(O)C3(C)C3C4(O)OCC23C1C(C)C4O (stereo not given) | 0.113 |

tested on: SK-MEL-2 melanoma; assay: growth of human tumour cells (NCI), 48 h

| Structure (SMILES) | TGI [µM] |
| --- | --- |
| CCOC(=O)/C=C/CC(C)(C)COC(C)=O | > 10 |
| COc1ccc(C2C(C(=O)O)=C(CO)Oc3cc4c(cc32)OCO4)cc1 (stereo not given) | > 100 |
| CCC(C)C(=O)OC1C(=O)OC2CC3C(C)=CC(=O)C(O)C3(C)C3C4(O)OCC23C1C(C)C4O (stereo not given) | 0.184 |

tested on: M14 melanoma; assay: growth of human tumour cells (NCI), 48 h

| Structure (SMILES) | TGI [µM] |
| --- | --- |
| CCOC(=O)/C=C/CC(C)(C)COC(C)=O | > 10 |
| COc1ccc(C2C(C(=O)O)=C(CO)Oc3cc4c(cc32)OCO4)cc1 (stereo not given) | > 100 |
| CCC(C)C(=O)OC1C(=O)OC2CC3C(C)=CC(=O)C(O)C3(C)C3C4(O)OCC23C1C(C)C4O (stereo not given) | 0.0481 |

tested on: NCI-H23 lung; assay: growth of human tumour cells (NCI), 48 h

| Structure (SMILES) | TGI [µM] |
| --- | --- |
| CCOC(=O)/C=C/CC(C)(C)COC(C)=O | > 10 |
| COc1ccc(C2C(C(=O)O)=C(CO)Oc3cc4c(cc32)OCO4)cc1 (stereo not given) | > 100 |
| CCC(C)C(=O)OC1C(=O)OC2CC3C(C)=CC(=O)C(O)C3(C)C3C4(O)OCC23C1C(C)C4O (stereo not given) | 0.0431 |

tested on: UO-31 renal; assay: growth of human tumour cells (NCI), 48 h

| Structure (SMILES) | TGI [µM] |
| --- | --- |
| CCOC(=O)/C=C/CC(C)(C)COC(C)=O | > 10 |
| COc1ccc(C2C(C(=O)O)=C(CO)Oc3cc4c(cc32)OCO4)cc1 (stereo not given) | > 100 |
| CCC(C)C(=O)OC1C(=O)OC2CC3C(C)=CC(=O)C(O)C3(C)C3C4(O)OCC23C1C(C)C4O (stereo not given) | 0.278 |

tested on: TK-10 renal; assay: growth of human tumour cells (NCI), 48 h

| Structure (SMILES) | TGI [µM] |
| --- | --- |
| CCOC(=O)/C=C/CC(C)(C)COC(C)=O | > 10 |
| COc1ccc(C2C(C(=O)O)=C(CO)Oc3cc4c(cc32)OCO4)cc1 (stereo not given) | > 100 |
| CCC(C)C(=O)OC1C(=O)OC2CC3C(C)=CC(=O)C(O)C3(C)C3C4(O)OCC23C1C(C)C4O (stereo not given) | 0.845 |

tested on: RPMI-8226 leukemia; assay: growth of human tumour cells (NCI), 48 h

| Structure (SMILES) | TGI [µM] |
| --- | --- |
| CCOC(=O)/C=C/CC(C)(C)COC(C)=O | > 10 |
| COc1ccc(C2C(C(=O)O)=C(CO)Oc3cc4c(cc32)OCO4)cc1 (stereo not given) | > 100 |
| CCC(C)C(=O)OC1C(=O)OC2CC3C(C)=CC(=O)C(O)C3(C)C3C4(O)OCC23C1C(C)C4O (stereo not given) | 0.784 |

tested on: SF-295 CNS; assay: growth of human tumour cells (NCI), 48 h

| Structure (SMILES) | TGI [µM] |
| --- | --- |
| CCOC(=O)/C=C/CC(C)(C)COC(C)=O | > 10 |
| COc1ccc(C2C(C(=O)O)=C(CO)Oc3cc4c(cc32)OCO4)cc1 (stereo not given) | > 100 |
| CCC(C)C(=O)OC1C(=O)OC2CC3C(C)=CC(=O)C(O)C3(C)C3C4(O)OCC23C1C(C)C4O (stereo not given) | 0.126 |

tested on: HCT-116 colon; assay: growth of human tumour cells (NCI), 48 h

| Structure (SMILES) | TGI [µM] |
| --- | --- |
| CCOC(=O)/C=C/CC(C)(C)COC(C)=O | > 10 |
| COc1ccc(C2C(C(=O)O)=C(CO)Oc3cc4c(cc32)OCO4)cc1 (stereo not given) | > 100 |
| CCC(C)C(=O)OC1C(=O)OC2CC3C(C)=CC(=O)C(O)C3(C)C3C4(O)OCC23C1C(C)C4O (stereo not given) | 1.4 |

tested on: LOX IMVI melanoma; assay: growth of human tumour cells (NCI), 48 h

| Structure (SMILES) | TGI [µM] |
| --- | --- |
| CCOC(=O)/C=C/CC(C)(C)COC(C)=O | > 10 |
| COc1ccc(C2C(C(=O)O)=C(CO)Oc3cc4c(cc32)OCO4)cc1 (stereo not given) | > 100 |
| CCC(C)C(=O)OC1C(=O)OC2CC3C(C)=CC(=O)C(O)C3(C)C3C4(O)OCC23C1C(C)C4O (stereo not given) | 0.0154 |

tested on: UACC-257 melanoma; assay: growth of human tumour cells (NCI), 48 h

| Structure (SMILES) | TGI [µM] |
| --- | --- |
| CCOC(=O)/C=C/CC(C)(C)COC(C)=O | > 10 |
| COc1ccc(C2C(C(=O)O)=C(CO)Oc3cc4c(cc32)OCO4)cc1 (stereo not given) | > 100 |
| CCC(C)C(=O)OC1C(=O)OC2CC3C(C)=CC(=O)C(O)C3(C)C3C4(O)OCC23C1C(C)C4O (stereo not given) | 1.34 |

tested on: HCT-15 colon; assay: growth of human tumour cells (NCI), 48 h

| Structure (SMILES) | TGI [µM] |
| --- | --- |
| CCOC(=O)/C=C/CC(C)(C)COC(C)=O | > 10 |
| COc1ccc(C2C(C(=O)O)=C(CO)Oc3cc4c(cc32)OCO4)cc1 (stereo not given) | > 100 |
| CCC(C)C(=O)OC1C(=O)OC2CC3C(C)=CC(=O)C(O)C3(C)C3C4(O)OCC23C1C(C)C4O (stereo not given) | 0.944 |
